# The source made the active and inactive calls.
# Legend:
# [1] = molecular target: Sphingosine 1-phosphate receptor 2 (Homo sapiens, UniProt O95136); assay: Late-stage fluorescence-based dose-response cell-based counterscreen assay to identify agonists of the Sphingosine 1-Phosphate Receptor 3 (S1P3): Sphingosine 1-Phosphate Receptor 2 (S1P2) agonist assay.; assay type: functional
# [2] = molecular target: Sphingosine 1-phosphate receptor 4 (Homo sapiens, UniProt O95977); assay: Late-stage fluorescence-based dose-response cell-based counterscreen assay to identify agonists of the Sphingosine 1-Phosphate Receptor 3 (S1P3): Sphingosine 1-Phosphate Receptor 4 (S1P4) agonist assay.; assay type: functional
# Sequence of Sphingosine 1-phosphate receptor 4 (O95977 whole entry): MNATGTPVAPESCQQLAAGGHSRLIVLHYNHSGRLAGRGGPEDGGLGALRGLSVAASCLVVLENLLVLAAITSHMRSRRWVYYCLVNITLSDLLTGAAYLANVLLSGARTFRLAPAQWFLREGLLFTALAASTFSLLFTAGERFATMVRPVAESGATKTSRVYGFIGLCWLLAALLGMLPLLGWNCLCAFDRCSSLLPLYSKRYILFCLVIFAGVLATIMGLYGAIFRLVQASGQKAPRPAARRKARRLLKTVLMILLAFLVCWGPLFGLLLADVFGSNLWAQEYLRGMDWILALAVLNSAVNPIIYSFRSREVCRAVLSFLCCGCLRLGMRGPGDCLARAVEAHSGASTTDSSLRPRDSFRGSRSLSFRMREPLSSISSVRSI
# cells = assay type: functional
# [3] = molecular target: Glycogen synthase kinase-3 alpha (Homo sapiens, UniProt P49840); assay: Inhibition of Human GSK-3 alpha Activity Measured in Biochemical System Using Microfluidics - 2063-06_Inhibitor_Dose_DryPowder_Activity_Set2. [Related pubchem assays (depositor defined):AID2709]
# Sequence of Glycogen synthase kinase-3 alpha (P49840 whole entry): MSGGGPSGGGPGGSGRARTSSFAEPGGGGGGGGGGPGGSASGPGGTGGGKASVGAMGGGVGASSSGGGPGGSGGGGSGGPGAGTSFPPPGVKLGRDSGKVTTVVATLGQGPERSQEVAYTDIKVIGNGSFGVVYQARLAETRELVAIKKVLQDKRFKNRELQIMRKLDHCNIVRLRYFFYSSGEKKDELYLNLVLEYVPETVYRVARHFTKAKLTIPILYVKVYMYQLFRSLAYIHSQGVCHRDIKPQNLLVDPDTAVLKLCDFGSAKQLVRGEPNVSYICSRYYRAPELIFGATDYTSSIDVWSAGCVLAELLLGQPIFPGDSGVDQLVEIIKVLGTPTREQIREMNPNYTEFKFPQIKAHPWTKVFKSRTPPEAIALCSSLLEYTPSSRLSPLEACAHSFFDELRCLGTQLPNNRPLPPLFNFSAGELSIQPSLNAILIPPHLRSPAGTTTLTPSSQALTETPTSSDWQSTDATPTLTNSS
# [4] = molecular target: Glycogen synthase kinase-3 beta (Homo sapiens, UniProt P49841); assay: Inhibition of Human GSK-3 beta Activity Measured in Biochemical System Using Microfluidics - 2063-05_Inhibitor_Dose_DryPowder_Activity_Set2. [Related pubchem assays (depositor defined):AID2709]
# Sequence of Glycogen synthase kinase-3 beta (P49841 whole entry): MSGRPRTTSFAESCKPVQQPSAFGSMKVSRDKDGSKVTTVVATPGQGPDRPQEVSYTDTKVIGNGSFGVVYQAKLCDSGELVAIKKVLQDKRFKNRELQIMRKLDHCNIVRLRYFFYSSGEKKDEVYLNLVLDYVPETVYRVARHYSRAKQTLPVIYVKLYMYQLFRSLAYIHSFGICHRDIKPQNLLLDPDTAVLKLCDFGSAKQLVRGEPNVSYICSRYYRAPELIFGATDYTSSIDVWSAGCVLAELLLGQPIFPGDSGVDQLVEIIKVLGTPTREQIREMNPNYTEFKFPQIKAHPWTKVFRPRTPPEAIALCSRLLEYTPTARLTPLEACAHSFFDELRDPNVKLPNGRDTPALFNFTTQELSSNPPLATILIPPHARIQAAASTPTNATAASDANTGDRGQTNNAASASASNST
# [5] = molecular target: T1, Low molecular weight phosphotyrosine protein phosphatase (Homo sapiens, UniProt P24666); assay type: functional; details: read-out: IC50_Mean
# T1 sequence (P24666 whole entry): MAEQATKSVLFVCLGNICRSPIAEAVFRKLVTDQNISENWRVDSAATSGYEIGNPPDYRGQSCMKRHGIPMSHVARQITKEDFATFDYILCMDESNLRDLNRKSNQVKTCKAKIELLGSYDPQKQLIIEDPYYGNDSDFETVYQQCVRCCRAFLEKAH
# [6] = molecular target: T1, Low molecular weight phosphotyrosine protein phosphatase; assay type: functional; details: read-out: IC50_Mean; remark: listed apart in the source
# [7] = molecular target: DNA dC->dU-editing enzyme APOBEC-3G (Homo sapiens, UniProt Q9HC16); assay: APOBEC3G deaminase inhibitors, SAR follow-up, biochemical, fluorescence, single-stranded DNA substrate (AID 602136); assay type: functional; details: read-out: IC50_Mean
# Sequence of DNA dC->dU-editing enzyme APOBEC-3G (Q9HC16 whole entry): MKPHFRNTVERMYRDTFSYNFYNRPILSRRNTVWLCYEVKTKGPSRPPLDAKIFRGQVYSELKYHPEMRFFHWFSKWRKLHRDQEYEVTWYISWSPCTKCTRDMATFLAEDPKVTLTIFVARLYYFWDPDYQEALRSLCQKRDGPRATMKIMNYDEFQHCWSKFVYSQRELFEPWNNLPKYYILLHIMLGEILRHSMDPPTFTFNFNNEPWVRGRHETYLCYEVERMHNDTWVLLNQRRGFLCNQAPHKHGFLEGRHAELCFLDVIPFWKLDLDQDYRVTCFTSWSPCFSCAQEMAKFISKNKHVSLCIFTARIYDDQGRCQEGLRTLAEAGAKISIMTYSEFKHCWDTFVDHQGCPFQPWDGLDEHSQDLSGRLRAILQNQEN
# [8] = molecular target: DNA dC->dU-editing enzyme APOBEC-3A (Homo sapiens, UniProt P31941); assay: SAR analysis of small molecule inhibitors of APOBEC3A DNA Deaminase via a fluorescence-based single-stranded DNA deaminase assay.; assay type: functional; details: read-out: IC50_Mean
# Sequence of DNA dC->dU-editing enzyme APOBEC-3A (P31941 whole entry): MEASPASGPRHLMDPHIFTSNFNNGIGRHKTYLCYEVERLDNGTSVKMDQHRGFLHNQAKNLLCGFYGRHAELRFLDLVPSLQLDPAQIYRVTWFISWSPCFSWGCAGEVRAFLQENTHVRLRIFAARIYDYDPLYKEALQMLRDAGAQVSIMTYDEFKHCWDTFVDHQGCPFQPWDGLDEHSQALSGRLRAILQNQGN
# [9] = molecular target: T2, Sentrin-specific protease 8 (Homo sapiens, UniProt Q96LD8); assay: SENP8 protease inhibitors, SAR follow-up, biochemical, luminescence (AID 504501); assay type: functional
# T2 sequence (Q96LD8 whole entry): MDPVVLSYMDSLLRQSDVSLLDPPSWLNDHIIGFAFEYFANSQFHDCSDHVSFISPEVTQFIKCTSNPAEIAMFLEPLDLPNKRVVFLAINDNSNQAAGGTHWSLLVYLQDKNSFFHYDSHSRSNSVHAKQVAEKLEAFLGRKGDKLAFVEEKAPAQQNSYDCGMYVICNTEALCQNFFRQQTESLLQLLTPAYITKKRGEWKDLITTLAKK
# Caspase-3 [10] = molecular target: T3, Caspase-3 (Homo sapiens, UniProt P42574); assay: caspase-3 inhibitors as off-family protease, SAR follow-up, selectivity assay for SENP protease inhibitor project, biochemical, luminescence, set 2 (AID 588599); assay type: functional
# T3 sequence (P42574 whole entry): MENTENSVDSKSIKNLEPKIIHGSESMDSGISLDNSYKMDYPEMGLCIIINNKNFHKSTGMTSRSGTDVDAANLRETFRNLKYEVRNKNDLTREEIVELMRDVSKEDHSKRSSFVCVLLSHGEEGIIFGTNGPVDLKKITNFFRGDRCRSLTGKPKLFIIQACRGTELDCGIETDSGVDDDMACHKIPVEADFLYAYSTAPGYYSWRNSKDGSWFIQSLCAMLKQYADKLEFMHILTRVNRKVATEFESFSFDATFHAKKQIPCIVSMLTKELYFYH
# [11] = molecular target: T2, Sentrin-specific protease 8; assay: SENP8 protease inhibitors, SAR follow-up, biochemical, luminescence, set 2 (AID 588601); assay type: functional
# Caspase-3 [12] = molecular target: T3, Caspase-3; assay: SAR Analysis of small molecule inhibitors of Sentrin-specific proteases (SENPs) using a Caspase-3 Selectivity assay. [Related pubchem assays (depositor defined):AID2540, AID2599, AID434973, AID489001]; assay type: functional
# [13] = molecular target: T4, Sentrin-specific protease 7 (Homo sapiens, UniProt Q9BQF6); assay: SENP7 protease inhibitors, SAR follow-up, biochemical, luminescence, set 2 (AID 588600); assay type: functional
# T4 sequence (Q9BQF6 whole entry): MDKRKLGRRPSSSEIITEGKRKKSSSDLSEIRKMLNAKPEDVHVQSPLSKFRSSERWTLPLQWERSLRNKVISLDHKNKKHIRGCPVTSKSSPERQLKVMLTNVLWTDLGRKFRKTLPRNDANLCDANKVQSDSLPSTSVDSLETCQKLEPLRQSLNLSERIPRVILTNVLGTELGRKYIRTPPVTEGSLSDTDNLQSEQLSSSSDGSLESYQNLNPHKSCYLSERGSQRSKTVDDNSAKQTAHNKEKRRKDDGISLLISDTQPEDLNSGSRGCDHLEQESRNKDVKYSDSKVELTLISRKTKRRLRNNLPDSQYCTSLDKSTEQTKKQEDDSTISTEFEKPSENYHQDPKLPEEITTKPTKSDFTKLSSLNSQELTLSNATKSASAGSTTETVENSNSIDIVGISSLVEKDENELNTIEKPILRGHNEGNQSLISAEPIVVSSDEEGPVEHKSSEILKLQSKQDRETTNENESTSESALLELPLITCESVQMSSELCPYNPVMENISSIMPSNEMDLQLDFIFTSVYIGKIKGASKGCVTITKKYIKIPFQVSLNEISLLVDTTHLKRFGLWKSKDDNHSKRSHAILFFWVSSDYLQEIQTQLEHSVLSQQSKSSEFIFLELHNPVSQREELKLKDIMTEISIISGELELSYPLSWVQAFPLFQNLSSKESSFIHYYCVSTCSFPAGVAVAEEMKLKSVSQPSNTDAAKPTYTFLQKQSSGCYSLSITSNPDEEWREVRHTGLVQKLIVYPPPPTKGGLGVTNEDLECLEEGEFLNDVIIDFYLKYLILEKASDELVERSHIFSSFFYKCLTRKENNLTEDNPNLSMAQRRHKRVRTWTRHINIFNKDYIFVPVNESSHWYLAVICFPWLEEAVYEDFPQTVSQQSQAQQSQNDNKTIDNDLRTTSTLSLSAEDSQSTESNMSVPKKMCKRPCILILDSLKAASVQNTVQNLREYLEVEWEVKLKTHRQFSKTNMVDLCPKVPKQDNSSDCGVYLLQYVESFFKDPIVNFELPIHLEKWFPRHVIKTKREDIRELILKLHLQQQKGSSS
# [14] = molecular target: T5, Sentrin-specific protease 6 (Homo sapiens, UniProt Q9GZR1); assay: SAR Analysis of small molecule inhibitors of Sentrin-specific protease 6 (SENP6) using a Luminescent assay. [Related pubchem assays (depositor defined):AID2582, AID2599]; assay type: functional
# T5 sequence (Q9GZR1 whole entry): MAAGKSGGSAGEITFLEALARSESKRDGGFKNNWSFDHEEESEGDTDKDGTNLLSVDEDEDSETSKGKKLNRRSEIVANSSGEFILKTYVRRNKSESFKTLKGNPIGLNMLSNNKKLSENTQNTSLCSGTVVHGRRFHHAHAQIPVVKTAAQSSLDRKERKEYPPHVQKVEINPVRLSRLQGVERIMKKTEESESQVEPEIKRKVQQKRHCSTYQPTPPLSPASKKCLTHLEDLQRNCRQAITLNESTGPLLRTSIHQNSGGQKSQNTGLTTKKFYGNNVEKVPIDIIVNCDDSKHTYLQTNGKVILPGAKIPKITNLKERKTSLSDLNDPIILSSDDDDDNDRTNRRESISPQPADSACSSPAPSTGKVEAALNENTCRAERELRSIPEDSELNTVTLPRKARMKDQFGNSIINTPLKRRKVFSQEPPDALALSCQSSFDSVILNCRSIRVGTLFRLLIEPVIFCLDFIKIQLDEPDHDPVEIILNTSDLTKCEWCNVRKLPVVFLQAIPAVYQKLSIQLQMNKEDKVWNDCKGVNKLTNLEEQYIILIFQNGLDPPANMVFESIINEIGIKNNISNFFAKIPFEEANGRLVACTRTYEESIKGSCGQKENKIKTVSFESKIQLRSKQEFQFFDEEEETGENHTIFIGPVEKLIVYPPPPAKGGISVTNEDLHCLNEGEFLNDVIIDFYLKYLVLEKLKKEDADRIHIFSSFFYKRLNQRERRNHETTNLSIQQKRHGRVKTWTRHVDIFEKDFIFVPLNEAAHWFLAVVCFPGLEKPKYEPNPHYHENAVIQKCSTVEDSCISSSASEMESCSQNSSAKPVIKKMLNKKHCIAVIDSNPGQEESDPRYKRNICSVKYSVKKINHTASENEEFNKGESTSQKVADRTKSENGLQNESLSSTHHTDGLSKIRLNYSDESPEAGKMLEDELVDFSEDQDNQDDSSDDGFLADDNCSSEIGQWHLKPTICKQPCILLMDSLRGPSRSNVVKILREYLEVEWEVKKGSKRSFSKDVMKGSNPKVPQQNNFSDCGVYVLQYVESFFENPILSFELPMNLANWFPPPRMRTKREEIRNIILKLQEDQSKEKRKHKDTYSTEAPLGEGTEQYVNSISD
# [15] = molecular target: T5, Sentrin-specific protease 6; assay: SENP6 protease inhibitors, SAR follow-up, biochemical, luminescence, set 2 (AID 588598); assay type: functional
# [16] = molecular target: T4, Sentrin-specific protease 7; assay: SENP7 protease inhibitors, SAR follow-up, biochemical, luminescence (AID 504497); assay type: functional
# [17] = tested on: Streptococcus sp. 'group A'; assay: growth inhibition of control SK(-) GAS strain, dose response, counter-screen for streptokinase expression inhibitor project, luminescence, kanamycin, BacTiterGlo, confirmation (AID 1900); assay type: functional, organism-based
# [18] = inhibitors of intracellular T. cruzi replication, confirmation, NIH3T3 host cells, beta-gal luminescence (AID 2044); assay type: functional, cell-based;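 further: intracellular parasites grown in NIH/3T3 mouse fibroblasts as host cells; luminescent beta-galactosidase reporter signal from transgenic T. cruzi replicating inside host cells; inhibitors lower the luminescence signal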
# [19] = cytotoxicity toward NIH3T3 fibroblasts, dose response, counter-screen, cell-based, ATP luminescence, mouse fibroblasts (AID 2010); assay type: functional;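 further: cells exposed to compound for about 90 hours before reading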
# Streptococcus = assay: Group A Streptococcus viability loss, dose response, counter-screen for streptokinase expression inhibitor project, luminescence, BacTiterGlo (AID 1915); assay type: functional, organism-based;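 further: potency for reduction of bacterial viability or growth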
# [20] = molecular target: 26S proteasome non-ATPase regulatory subunit 14 (Homo sapiens, UniProt O00487); assay: inhibition of proteasome subunit RPN11 – biochemical, fluorescence polarization, uHTS hits, confirmation (AID 602368); assay type: functional
# Sequence of 26S proteasome non-ATPase regulatory subunit 14 (O00487 whole entry): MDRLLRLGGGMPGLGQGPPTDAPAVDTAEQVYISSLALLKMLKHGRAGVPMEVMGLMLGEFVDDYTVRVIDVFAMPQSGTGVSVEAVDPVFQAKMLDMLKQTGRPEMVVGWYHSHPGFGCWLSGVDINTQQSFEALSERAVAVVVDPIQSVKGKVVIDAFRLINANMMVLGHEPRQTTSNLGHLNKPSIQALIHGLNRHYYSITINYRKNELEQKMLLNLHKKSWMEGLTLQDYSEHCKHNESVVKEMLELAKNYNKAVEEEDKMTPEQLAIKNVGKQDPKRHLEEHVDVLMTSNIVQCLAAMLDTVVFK
# [21] = molecular target: 72 kDa type IV collagenase (Homo sapiens, UniProt P08253); assay: Dose Response validation of uHTS RPN11 inhibitor hits using a MMP-2 Fluorescence assay.; assay type: functional
# Sequence of 72 kDa type IV collagenase (P08253 whole entry): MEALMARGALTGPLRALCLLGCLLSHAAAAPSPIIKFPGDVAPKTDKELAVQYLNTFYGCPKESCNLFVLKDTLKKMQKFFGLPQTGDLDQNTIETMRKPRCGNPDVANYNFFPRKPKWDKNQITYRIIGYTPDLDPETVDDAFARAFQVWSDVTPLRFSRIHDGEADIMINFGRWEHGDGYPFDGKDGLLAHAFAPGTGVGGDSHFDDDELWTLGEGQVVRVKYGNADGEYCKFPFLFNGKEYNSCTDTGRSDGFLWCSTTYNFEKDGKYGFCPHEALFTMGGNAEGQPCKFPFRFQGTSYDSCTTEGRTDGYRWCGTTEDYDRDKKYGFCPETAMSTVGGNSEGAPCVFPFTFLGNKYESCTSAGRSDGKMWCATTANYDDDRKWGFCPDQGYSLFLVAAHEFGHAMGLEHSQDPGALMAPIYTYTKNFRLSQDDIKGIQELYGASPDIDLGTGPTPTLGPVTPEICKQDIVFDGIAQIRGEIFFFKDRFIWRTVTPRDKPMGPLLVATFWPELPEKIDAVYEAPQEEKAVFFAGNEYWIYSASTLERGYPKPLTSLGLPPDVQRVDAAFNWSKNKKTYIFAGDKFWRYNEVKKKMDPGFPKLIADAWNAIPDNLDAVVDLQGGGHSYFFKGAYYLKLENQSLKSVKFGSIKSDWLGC
# Prothrombin = Prothrombin (Bos taurus, UniProt P00735); assay: thrombin inhibition, dose response, biochemical, fluorescence polarization, uHTS hits (AID 602369); assay type: functional
# [22] = molecular target: T6, High affinity choline transporter 1 (Homo sapiens, UniProt Q9GZV3); assay: CHT activators, dose response, cell-based, 10-point CRC, membrane potential dye (AID 602376); assay type: functional
# T6 sequence (Q9GZV3 whole entry): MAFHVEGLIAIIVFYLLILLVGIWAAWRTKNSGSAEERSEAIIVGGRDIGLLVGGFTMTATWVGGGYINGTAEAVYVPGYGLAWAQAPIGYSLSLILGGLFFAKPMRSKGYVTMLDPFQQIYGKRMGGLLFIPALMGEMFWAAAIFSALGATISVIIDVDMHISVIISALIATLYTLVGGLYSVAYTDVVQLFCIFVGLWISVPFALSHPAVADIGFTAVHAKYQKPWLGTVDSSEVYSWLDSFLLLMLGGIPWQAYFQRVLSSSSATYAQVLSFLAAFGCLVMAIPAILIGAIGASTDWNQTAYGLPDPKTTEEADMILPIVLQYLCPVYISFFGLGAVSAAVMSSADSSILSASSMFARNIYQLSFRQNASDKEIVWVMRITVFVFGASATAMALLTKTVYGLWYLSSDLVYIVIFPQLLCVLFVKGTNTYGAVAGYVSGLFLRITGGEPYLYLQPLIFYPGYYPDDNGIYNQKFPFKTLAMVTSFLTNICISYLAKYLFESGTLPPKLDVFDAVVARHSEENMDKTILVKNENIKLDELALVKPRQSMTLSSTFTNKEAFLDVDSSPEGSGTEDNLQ
# Sequence of Sphingosine 1-phosphate receptor 2 (O95136 whole entry): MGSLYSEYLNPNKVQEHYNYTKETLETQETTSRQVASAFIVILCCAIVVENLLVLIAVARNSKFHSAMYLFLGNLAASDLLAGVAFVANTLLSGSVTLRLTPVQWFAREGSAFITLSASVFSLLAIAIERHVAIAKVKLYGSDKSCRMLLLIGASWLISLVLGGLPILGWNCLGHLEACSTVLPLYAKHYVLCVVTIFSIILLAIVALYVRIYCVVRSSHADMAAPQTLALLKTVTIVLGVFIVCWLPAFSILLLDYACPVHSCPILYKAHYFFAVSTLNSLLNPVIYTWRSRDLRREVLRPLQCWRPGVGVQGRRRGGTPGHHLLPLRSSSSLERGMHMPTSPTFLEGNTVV
smiles,measurement,setting,value
CC(C)c1cc(C(=O)N(C2CCCCC2)C2CCCCC2)no1,EC50,[1],> 50 µM (inactive)
same,EC50,[2],> 50 µM (inactive)
c1ccc(-c2nc(NCCCn3ccnc3)c3ccccc3n2)cc1,IC50,cells,20.1 µM (active)
same,AC50,[3],11.2 µM (active)
same,AC50,[4],8.78 µM (active)
same,IC50,[5],39 µM (inactive)
same,IC50,[6],13.9 µM (active)
Cc1c(CNCc2cccc(Br)c2)c(C(=O)O)c(C)n1Cc1ccc(F)cc1,IC50,[7],> 99 µM (inactive)
same,IC50,[8],> 99 µM (inactive)
CCCCc1ccc2nc(NC(=O)c3nccs3)sc2c1,IC50,[9],5.4 µM (active)
same,IC50,Caspase-3 [10],4.83 µM (active)
same,IC50,[11],4.9 µM (active)
same,IC50,Caspase-3 [12],5.4 µM (active)
same,IC50,[13],6.32 µM (active)
same,IC50,[14],4.4 µM (active)
same,IC50,[15],7.43 µM (active)
same,IC50,[16],3.3 µM (active)
COc1ccc2oc(C(=O)Nc3nc(-c4ccccn4)cs3)c(C)c2c1,EC50,[17],0.915 µM (active)
same,EC50,[18],1.22 µM (active)
same,EC50,[19],18.9 µM (active)
same,EC50,Streptococcus,1.52 µM (active)
same,IC50,[20],34.1 µM (active)
same,IC50,[21],> 100 µM (inactive)
same,IC50,Prothrombin,69.4 µM (active)
COc1ccc(C)cc1Nc1n[n+](-c2ccccc2)c(-c2ccc(SC)cc2)s1,EC50,[22],15.5 µM (active)

# Reference: ChEMBL document CHEMBL1201862, “PubChem BioAssay data set” (2004)
